Test results: ChEMBL document CHEMBL4325853, “Design, synthesis and antibacterial evaluation of 2,4-disubstituted-6-thiophenyl-pyrimidines” (Eur J Med Chem, 2019)
Calls of active or inactive are those of the source.

How the values were obtained:
[1] = tested on: Staphylococcus aureus; experiment: Antibacterial activity against methicillin-resistant Staphylococcus aureus isolate 7183 after 18 hrs by broth microdilution method; format: functional; conditions: isolate 7183, 18 h
[2] = tested on: Staphylococcus aureus; experiment: Antibacterial activity against methicillin-resistant Staphylococcus aureus isolate 7587 after 18 hrs by broth microdilution method; format: functional; conditions: isolate 7587, 18 h
[3] = tested on: Staphylococcus aureus; experiment: Antibacterial activity against methicillin-resistant Staphylococcus aureus isolate 7844 after 18 hrs by broth microdilution method; format: functional; conditions: isolate 7844, 18 h
[4] = tested on: Staphylococcus aureus; experiment: Antibacterial activity against methicillin-resistant Staphylococcus aureus isolate 1651 after 18 hrs by broth microdilution method; format: functional; conditions: isolate 1651, 18 h
[5] = tested on: Enterococcus faecalis; experiment: Antibacterial activity against Enterococcus faecalis ATCC 29212 after 18 hrs by broth microdilution method; format: functional; conditions: ATCC 29212, 18 h
[6] = tested on: Staphylococcus aureus; experiment: Antibacterial activity against methicillin-resistant Staphylococcus aureus isolate 7813 after 18 hrs by broth microdilution method; format: functional; conditions: isolate 7813, 18 h
[7] = tested on: Staphylococcus aureus; experiment: Antibacterial activity against methicillin-resistant Staphylococcus aureus isolate 7807 after 18 hrs by broth microdilution method; format: functional; conditions: isolate 7807, 18 h
[8] = tested on: Staphylococcus aureus; experiment: Potency index, ratio of methicillin MIC to test compound MIC for methicillin-resistant Staphylococcus aureus ATCC BAA41; format: functional
[9] = tested on: Enterococcus faecalis; experiment: Antibacterial activity against vancomycin-resistant Enterococcus faecalis ATCC 700221 after 18 hrs by broth microdilution method; format: functional; conditions: ATCC 700221, 18 h
[10] = tested on: Staphylococcus aureus; experiment: Potency index, ratio of methicillin MIC to test compound MIC for methicillin-resistant Staphylococcus aureus ATCC 33591; format: functional
[11] = target: T1, Cell division protein FtsZ (Staphylococcus aureus) (UniProt P0A031); experiment: Inhibition of recombinant Staphylococcus aureus FtsZ polymerization at 8 ug/ml by 90 degree light scattering-based fluorescence spectrometric analysis
T1 sequence (whole entry): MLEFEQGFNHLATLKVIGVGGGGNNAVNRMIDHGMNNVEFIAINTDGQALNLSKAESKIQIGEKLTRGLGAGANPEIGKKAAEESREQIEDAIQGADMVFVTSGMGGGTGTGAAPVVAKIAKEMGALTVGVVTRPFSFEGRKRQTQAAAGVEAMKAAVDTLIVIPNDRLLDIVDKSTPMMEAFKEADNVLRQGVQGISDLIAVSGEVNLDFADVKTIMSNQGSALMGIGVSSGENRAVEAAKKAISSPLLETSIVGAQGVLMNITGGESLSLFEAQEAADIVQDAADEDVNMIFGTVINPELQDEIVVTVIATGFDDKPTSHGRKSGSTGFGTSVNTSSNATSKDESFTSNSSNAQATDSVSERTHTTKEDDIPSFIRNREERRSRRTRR

[12] = tested on: Staphylococcus aureus; experiment: Antibacterial activity against methicillin-resistant Staphylococcus aureus isolate 3096 after 18 hrs by broth microdilution method; format: functional; conditions: isolate 3096, 18 h
[13] = tested on: Staphylococcus aureus; experiment: Antibacterial activity against methicillin-resistant Staphylococcus aureus isolate 7717 after 18 hrs by broth microdilution method; format: functional; conditions: isolate 7717, 18 h
[14] = tested on: Staphylococcus aureus; experiment: Antibacterial activity against methicillin-resistant Staphylococcus aureus isolate 7943 after 18 hrs by broth microdilution method; format: functional; conditions: isolate 7943, 18 h
[15] = tested on: Staphylococcus aureus; experiment: Antibacterial activity against methicillin-resistant Staphylococcus aureus isolate 5056 after 18 hrs by broth microdilution method; format: functional; conditions: isolate 5056, 18 h
[16] = tested on: Staphylococcus aureus; experiment: Antibacterial activity against methicillin-resistant Staphylococcus aureus isolate 6334 after 18 hrs by broth microdilution method; format: functional; conditions: isolate 6334, 18 h
[17] = tested on: Staphylococcus aureus; experiment: Antibacterial activity against methicillin-resistant Staphylococcus aureus isolate 7682 after 18 hrs by broth microdilution method; format: functional; conditions: isolate 7682, 18 h
[18] = tested on: Staphylococcus aureus; experiment: Antibacterial activity against methicillin-resistant Staphylococcus aureus isolate 7947 after 18 hrs by broth microdilution method; format: functional; conditions: isolate 7947, 18 h
[19] = tested on: Staphylococcus aureus; experiment: Antibacterial activity against methicillin-resistant Staphylococcus aureus isolate 8078 after 18 hrs by broth microdilution method; format: functional; conditions: isolate 8078, 18 h
[20] = tested on: Staphylococcus epidermidis; experiment: Antibacterial activity against Staphylococcus epidermidis ATCC 12228 after 18 hrs by broth microdilution method; format: functional; conditions: ATCC 12228, 18 h
[21] = tested on: Staphylococcus aureus; experiment: Antibacterial activity against methicillin-resistant Staphylococcus aureus isolate 1708 after 18 hrs by broth microdilution method; format: functional; conditions: isolate 1708, 18 h
[22] = tested on: Staphylococcus aureus; experiment: Antibacterial activity against methicillin-resistant Staphylococcus aureus ATCC BAA1720 after 18 hrs by broth microdilution method; format: functional; conditions: ATCC BAA1720, 18 h
[23] = tested on: Staphylococcus aureus; experiment: Antibacterial activity against methicillin-resistant Staphylococcus aureus ATCC 43300 after 18 hrs by broth microdilution method; format: functional; conditions: ATCC 43300, 18 h
[24] = tested on: Staphylococcus aureus; experiment: Antibacterial activity against methicillin-resistant Staphylococcus aureus isolate 7434 after 18 hrs by broth microdilution method; format: functional; conditions: isolate 7434, 18 h
[25] = tested on: Staphylococcus aureus; experiment: Antibacterial activity against methicillin-resistant Staphylococcus aureus isolate 2931 after 18 hrs by broth microdilution method; format: functional; conditions: isolate 2931, 18 h
[26] = tested on: Bacillus subtilis; experiment: Antibacterial activity against Bacillus subtilis 168 after 18 hrs by broth microdilution method; format: functional; conditions: subsp. subtilis str. 168, 18 h
[27] = tested on: Staphylococcus aureus; experiment: Antibacterial activity against methicillin-resistant Staphylococcus aureus isolate 3123 after 18 hrs by broth microdilution method; format: functional; conditions: isolate 3123, 18 h
[28] = tested on: Staphylococcus aureus; experiment: Antibacterial activity against methicillin-resistant Staphylococcus aureus isolate 2491 after 18 hrs by broth microdilution method; format: functional; conditions: isolate 2491, 18 h
[29] = tested on: Staphylococcus aureus; experiment: Antibacterial activity against methicillin-resistant Staphylococcus aureus isolate 4127 after 18 hrs by broth microdilution method; format: functional; conditions: isolate 4127, 18 h
[30] = tested on: Staphylococcus aureus; experiment: Antibacterial activity against methicillin-resistant Staphylococcus aureus isolate 1947 after 18 hrs by broth microdilution method; format: functional; conditions: isolate 1947, 18 h
[31] = tested on: Staphylococcus aureus; experiment: Antibacterial activity against methicillin-resistant Staphylococcus aureus isolate 2350 after 18 hrs by broth microdilution method; format: functional; conditions: isolate 2350, 18 h
[32] = tested on: Staphylococcus aureus; experiment: Antibacterial activity against methicillin-resistant Staphylococcus aureus ATCC BAA41 after 18 hrs by broth microdilution method; format: functional; conditions: ATCC BAA41, 18 h
[33] = tested on: Staphylococcus aureus; experiment: Bactericidal activity against methicillin-resistant Staphylococcus aureus ATCC BAA41 after 18 hrs by broth microdilution method; format: functional; conditions: ATCC BAA41, 18 h
[34] = tested on: Enterococcus faecium; experiment: Antibacterial activity against Enterococcus faecium ATCC 49624 after 18 hrs by broth microdilution method; format: functional; conditions: ATCC 49624, 18 h
[35] = tested on: Staphylococcus aureus; experiment: Antibacterial activity against methicillin-resistant Staphylococcus aureus isolate 7536 after 18 hrs by broth microdilution method; format: functional; conditions: isolate 7536, 18 h
[36] = tested on: Staphylococcus aureus; experiment: Potency index, ratio of methicillin MIC to test compound MIC for methicillin-resistant Staphylococcus aureus ATCC 43300; format: functional
[37] = tested on: Staphylococcus epidermidis; experiment: Potency index, ratio of berberine MIC to test compound MIC for Staphylococcus epidermidis ATCC 12228; format: functional
[38] = tested on: Staphylococcus aureus; experiment: Antibacterial activity against methicillin-resistant Staphylococcus aureus isolate 4955 after 18 hrs by broth microdilution method; format: functional; conditions: isolate 4955, 18 h
[39] = tested on: Staphylococcus aureus; experiment: Ratio of MBC to MIC for methicillin-resistant Staphylococcus aureus ATCC BAA41; format: functional
[40] = tested on: Staphylococcus aureus; experiment: Bactericidal activity against methicillin-resistant Staphylococcus aureus ATCC 43300 after 18 hrs by broth microdilution method; format: functional; conditions: ATCC 43300, 18 h
[41] = tested on: Staphylococcus aureus; experiment: Antibacterial activity against methicillin-resistant Staphylococcus aureus isolate 7972 after 18 hrs by broth microdilution method; format: functional; conditions: isolate 7972, 18 h

CC(C)c1ccc(CN2CCCN(CCc3cc(-c4cccs4)nc(-c4ccncc4)n3)CC2)cc1
50 - 100: Ratio [37]
4 µg/mL: MIC90 [17] | MIC90 [28] | MBC [40]
>100: Ratio [8] | Ratio [10] | Ratio [36]
2 µg/mL: MIC90 [1] | MIC90 [2] | MIC90 [3] | MIC90 [4] | MIC90 [5] | MIC90 [6] | MIC90 [7] | MIC90 [9] | MIC90 [12] | MIC90 [13] | MIC90 [14] | MIC90 [15] | MIC90 [16] | MIC90 [18] | MIC90 [19] | MIC90 [20] | MIC90 [21] | MIC90 [22] | MIC90 [23] | MIC90 [24] | MIC90 [25] | MIC90 [26] | MIC90 [27] | MIC90 [29] | MIC90 [30] | MIC90 [31] | MIC90 [32] | MBC [33] | MIC90 [34] | MIC90 [35] | MIC90 [38] | MIC90 [41]
active: inhibition [11]
1: Ratio [39]

COc1cccc(OC)c1C(=O)N[C@@H]1C(=O)N2[C@@H]1SC(C)(C)[C@@H]2C(=O)O [METHICILLIN]
> 64 µg/mL: MIC90 [1] | MIC90 [2] | MIC90 [3] | MIC90 [4] | MIC90 [6] | MIC90 [7] | MIC90 [12] | MIC90 [13] | MIC90 [14] | MIC90 [15] | MIC90 [16] | MIC90 [17] | MIC90 [18] | MIC90 [19] | MIC90 [21] | MIC90 [24] | MIC90 [25] | MIC90 [27] | MIC90 [28] | MIC90 [29] | MIC90 [30] | MIC90 [31] | MIC90 [35] | MIC90 [38] | MIC90 [41]
> 192 µg/mL: MIC90 [22] | MIC90 [23] | MIC90 [32]
6 µg/mL: MIC90 [5] | MIC90 [9]
4 µg/mL: MIC90 [34]
inactive: inhibition [11]
0.5 µg/mL: MIC90 [20] | MIC90 [26]
